Measurements taken from patent publication US10538486B2, “Hydroxamic acid type contrast agent containing radioisotope fluoride, preparation method and application thereof” (Institute of Nuclear Energy Research, Atomic Energy …, priority 2017, dated 2020).

Legend:
Format in all cases: biochemical
Details in all cases: 4 concentrations in DMSO, 30 min at room temperature, fluorescence 355/460 nm, FIG. 5
HDAC8 = target: T1, HDAC8 (Homo sapiens, UniProt Q9BY41); assay: HDAC Fluorometric Assay Kit enzyme activity assay, HDAC8
T1 construct: purchased Enzolifesciences
T1 sequence (Q9BY41 1-377): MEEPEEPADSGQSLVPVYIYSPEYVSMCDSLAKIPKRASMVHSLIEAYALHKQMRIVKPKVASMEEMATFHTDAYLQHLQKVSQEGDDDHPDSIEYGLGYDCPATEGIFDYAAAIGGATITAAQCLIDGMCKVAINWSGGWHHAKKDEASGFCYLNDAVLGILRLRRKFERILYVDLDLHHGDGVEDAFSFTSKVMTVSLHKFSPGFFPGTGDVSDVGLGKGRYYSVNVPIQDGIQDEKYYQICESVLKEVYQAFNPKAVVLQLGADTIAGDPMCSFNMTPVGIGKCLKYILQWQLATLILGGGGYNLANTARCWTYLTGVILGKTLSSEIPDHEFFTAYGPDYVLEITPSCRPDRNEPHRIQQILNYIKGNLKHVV
Protocol: (§1) To further investigate whether the fluorine-18-hydroxamic acid-based compound is useful as a HDAC inhibitor, the inhibitory effect on HDAC is assayed with the fluorine-19-hydroxamic acid-based compound. The fluorine-18-hydroxamic acid-based compound and the fluorine-19-hydroxamic acid-based compound have the same chemical properties, except that the fluorine-18-hydroxamic acid-based compound has radioactivity, and the fluorine-19-hydroxamic acid-based compound has no radioactivity.
(§2) The fluorine-19-hydroxamic acid-based compound was diluted in dimethyl sulfoxide (DMSO) to give 4 different concentrations. The enzyme activity of various subtypes of HDAC was assayed with a HDAC Fluorometric Assay Kit (available from Enzolifesciences). The fluorine-19-hydroxamic acid-based compound (10 μL) and enzyme (15 μL) were added to a white opaque 96-well plate, and then a substrate (25 μL) was added and incubated for 30 min at room temperature. After incubation, the fluorescence intensity of the 96-well plate was measured on a microplate reader at an excitation wavelength of 355 nm and an emission wavelength of 460 nm, and the fluorescence intensity measured was analyzed by Graph Pad Prism 6 to calculate IC50 (as shown in FIG. 5).

HDAC6 = target: T2, HDAC6 (Homo sapiens, UniProt Q9UBN7); assay: HDAC Fluorometric Assay Kit enzyme activity assay, HDAC6
T2 construct: purchased Enzolifesciences
T2 sequence (Q9UBN7 1-1215): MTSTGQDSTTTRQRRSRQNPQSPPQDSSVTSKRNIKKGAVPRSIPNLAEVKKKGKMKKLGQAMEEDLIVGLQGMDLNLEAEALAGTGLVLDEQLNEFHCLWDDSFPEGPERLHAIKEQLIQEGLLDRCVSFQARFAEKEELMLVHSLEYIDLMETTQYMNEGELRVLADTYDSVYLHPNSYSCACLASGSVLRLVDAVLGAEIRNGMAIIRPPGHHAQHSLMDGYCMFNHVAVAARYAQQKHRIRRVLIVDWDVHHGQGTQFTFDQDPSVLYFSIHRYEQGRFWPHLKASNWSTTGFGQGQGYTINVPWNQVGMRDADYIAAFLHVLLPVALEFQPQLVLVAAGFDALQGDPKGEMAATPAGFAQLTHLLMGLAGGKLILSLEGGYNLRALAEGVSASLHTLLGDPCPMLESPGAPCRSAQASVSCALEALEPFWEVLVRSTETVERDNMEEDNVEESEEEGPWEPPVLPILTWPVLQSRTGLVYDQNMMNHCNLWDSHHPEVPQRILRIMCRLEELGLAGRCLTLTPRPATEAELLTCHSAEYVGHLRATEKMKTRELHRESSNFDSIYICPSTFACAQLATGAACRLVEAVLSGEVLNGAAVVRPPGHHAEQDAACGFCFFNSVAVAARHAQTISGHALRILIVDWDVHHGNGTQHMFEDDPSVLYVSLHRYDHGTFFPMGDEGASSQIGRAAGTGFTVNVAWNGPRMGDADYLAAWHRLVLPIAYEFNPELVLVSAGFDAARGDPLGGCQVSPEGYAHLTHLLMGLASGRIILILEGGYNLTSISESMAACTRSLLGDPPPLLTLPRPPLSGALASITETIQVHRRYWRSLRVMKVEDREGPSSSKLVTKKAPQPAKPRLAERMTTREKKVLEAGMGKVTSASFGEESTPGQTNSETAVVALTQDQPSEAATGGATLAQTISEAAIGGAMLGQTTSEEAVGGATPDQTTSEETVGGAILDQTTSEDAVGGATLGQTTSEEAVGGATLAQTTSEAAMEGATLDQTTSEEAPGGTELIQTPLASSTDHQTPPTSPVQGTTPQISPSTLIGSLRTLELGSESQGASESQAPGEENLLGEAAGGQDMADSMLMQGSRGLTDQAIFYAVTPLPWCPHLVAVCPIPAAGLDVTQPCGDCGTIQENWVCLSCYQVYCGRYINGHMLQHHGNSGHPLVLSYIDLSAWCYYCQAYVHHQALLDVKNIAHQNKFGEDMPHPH
Protocol: as §1, §2

HDAC3 = target: T3, HDAC3 (Homo sapiens, UniProt O15379); assay: HDAC Fluorometric Assay Kit enzyme activity assay, HDAC3
T3 construct: purchased Enzolifesciences
T3 sequence (O15379 whole entry, species assumed): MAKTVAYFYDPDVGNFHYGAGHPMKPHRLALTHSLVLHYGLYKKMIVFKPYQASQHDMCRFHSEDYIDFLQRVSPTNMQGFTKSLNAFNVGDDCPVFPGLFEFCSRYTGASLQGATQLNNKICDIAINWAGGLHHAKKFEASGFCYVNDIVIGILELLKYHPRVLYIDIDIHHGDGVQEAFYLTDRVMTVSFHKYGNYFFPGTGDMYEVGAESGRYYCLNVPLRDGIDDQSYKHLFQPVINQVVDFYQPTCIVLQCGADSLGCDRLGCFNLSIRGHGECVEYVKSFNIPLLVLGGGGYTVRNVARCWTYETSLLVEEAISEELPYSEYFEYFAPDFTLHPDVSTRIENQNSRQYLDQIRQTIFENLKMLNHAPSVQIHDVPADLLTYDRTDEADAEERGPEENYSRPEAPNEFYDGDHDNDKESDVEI
T3 sequence (O75376 395-489 partner limits assumed, species assumed): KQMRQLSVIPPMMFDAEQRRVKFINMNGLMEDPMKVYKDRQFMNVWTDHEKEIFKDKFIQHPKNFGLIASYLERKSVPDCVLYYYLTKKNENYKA
Protocol: as §1, §2

IC50, inhibitory effect on HDAC8 (HDAC8): selectively inhibited
IC50, inhibitory effect on HDAC6 (HDAC6): selectively inhibited
IC50, inhibitory effect on HDAC3 (HDAC3): selectively inhibited
Structure (SMILES): Cc1cc(F)ccc1OCCCC(=O)NO
